This note sets out measurements from BindingDB's records for doi:10.1016/S0960-894X(01)80235-3 (1994).

Sequence of O-acyltransferase (G1SFD9 1-524): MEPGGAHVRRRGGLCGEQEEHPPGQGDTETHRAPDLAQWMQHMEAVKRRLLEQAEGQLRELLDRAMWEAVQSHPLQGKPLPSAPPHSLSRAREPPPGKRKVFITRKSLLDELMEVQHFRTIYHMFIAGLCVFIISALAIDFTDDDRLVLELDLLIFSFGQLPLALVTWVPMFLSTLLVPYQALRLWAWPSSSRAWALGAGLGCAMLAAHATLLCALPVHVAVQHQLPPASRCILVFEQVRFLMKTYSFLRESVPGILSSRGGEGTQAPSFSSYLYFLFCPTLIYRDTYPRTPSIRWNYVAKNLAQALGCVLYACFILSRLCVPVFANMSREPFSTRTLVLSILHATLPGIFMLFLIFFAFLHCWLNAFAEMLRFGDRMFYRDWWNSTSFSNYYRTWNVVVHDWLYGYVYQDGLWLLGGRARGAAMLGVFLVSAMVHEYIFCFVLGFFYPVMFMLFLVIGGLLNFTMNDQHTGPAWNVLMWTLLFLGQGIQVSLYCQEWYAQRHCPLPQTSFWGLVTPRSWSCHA

The target in this experiment is O-acyltransferase (Oryctolagus cuniculus, UniProt G1SFD9). Description: ChEBML_28168. The protocol:
In vitro Acyl coenzyme A:cholesterol acyltransferase inhibition by incubation with [14C]oleolyl-CoA and intestinal microsomes isolated from cholesterol-fed rabbits.
For `CCCCCCCC/C=C\CCCCCCCc1cc(=O)n(-c2ccc(F)cc2F)[nH]1` [2-(2,4-Difluoro-phenyl)-5-((Z)-heptadec-8-enyl)-2,4-dihydro-pyrazol-3-one], the 50% inhibitory concentration (IC50) (commonly the concentration that gives 50% inhibition) was determined as 5 µM.

`CCCCCCCC/C=C\CCCCCCCc1cc(=O)n(-c2ccc(C)cc2C)[nH]1` [2-(2,4-Dimethyl-phenyl)-5-((Z)-heptadec-8-enyl)-2,4-dihydro-pyrazol-3-one] came in with an IC50 of 5 µM.

In turn, `CCCCCCCC/C=C\CCCCCCC[c+]1cc(O)n(-c2ccc([N+](=O)[O-])cc2[N+](=O)[O-])[n-]1` [2-(2,4-Dinitro-phenyl)-5-((Z)-heptadec-8-enyl)-2,4-dihydro-pyrazol-3-one] showed a 50% inhibitory concentration (IC50) of 5 µM. This lies in the single-digit micromolar range.

The molecule `CCCCCCCCCCc1cc(=O)n(-c2c(C)cccc2C)[nH]1` [5-Decyl-2-(2,6-dimethyl-phenyl)-2,4-dihydro-pyrazol-3-one] showed an IC50 of 5 µM.
